{
  "source": "patent US5407954A",
  "about": "“Arylalkoxyphenoxy-imidazoline compounds” (Merrell Dow Pharmaceuticals Inc., priority 1994, dated 1995)",
  "key": {"[1]": {"molecular_target": "T1, cloned rat 5-HT2 receptor (Rattus norvegicus, UniProt P14842)", "T1 construct": "expressed in transfected cells; host or cells: NIH 3T3 fibroblasts, line 'GF-6'", "T1 sequence (P14842 whole entry)": "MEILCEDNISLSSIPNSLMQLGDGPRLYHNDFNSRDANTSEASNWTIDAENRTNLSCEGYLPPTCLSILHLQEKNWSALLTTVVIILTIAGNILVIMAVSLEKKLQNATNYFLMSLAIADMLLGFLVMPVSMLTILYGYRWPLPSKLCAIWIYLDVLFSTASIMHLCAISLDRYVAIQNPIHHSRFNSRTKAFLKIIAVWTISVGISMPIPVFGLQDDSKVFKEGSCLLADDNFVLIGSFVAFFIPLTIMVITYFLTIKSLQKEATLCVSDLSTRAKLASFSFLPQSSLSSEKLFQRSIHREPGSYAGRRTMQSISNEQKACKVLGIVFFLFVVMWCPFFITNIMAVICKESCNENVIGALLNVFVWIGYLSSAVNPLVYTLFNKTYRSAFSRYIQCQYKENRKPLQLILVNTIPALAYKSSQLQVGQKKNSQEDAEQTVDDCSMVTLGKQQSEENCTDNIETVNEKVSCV", "experiment": "Affinity for 5-HT2 receptors on transfected fibroblast cell membranes ([125I]LSD competition binding, NIH 3T3 GF-6 cells)", "details": "NIH 3T3 GF-6 cell membranes, 37° C., 60 minutes, pH 7.6", "source_text": "Affinity for 5-HT2 receptor on transfected fibroblast cell membranes (partial agonist [^125 I]lysergic acid diethylamide; Elliott, M. J., Kent, A., J. Neurochem. 53: 191-196, 1989.; Peroutka, S. J., Snyder, S. H. , Molec. Pharmacol. 16: 687-699, 1979; Kadan, J. M., Krohn, A. M., Evans, M. J., Ualtz, R. L., Hartig, P. R.; J. Neurochem. 43: 601-606, 1984) is used to determine the potency of test compounds to compete with [^125 I]LSD binding to a NIH 3T3 cell line containing the cloned rat 5-HT2 receptor designated \"GF-6\" by its originators.[Julius, D., Huang, K. N., Livelli, T. J., Axel, R., and Jessell, T. M., Proc. Natl. Acad. Sci. USA 87:928-932, 1990]\nConfluent GF6 cell monolayers are dissociated in Versene and centrifuged at 1000 rpm for 5 minutes. The resulting pellet is homogenized in 10 volumes 0.32M sucrose using a Dounce glass homogenizer, 10 strokes. The suspension is centrifuged at 44,000×g for 15 minutes, and the pellet suspended in […] Hepes-KOH, pH 7.4, using a Polytron. The membranes are then stored at -80° C.\nThe assay tubes, in triplicate, receive 20 μl of 5 nM [^125 I]LSD, 20 μl of test compound (10^-9 M to 10^-5 M or 10 μM ketanserin for nonspecific binding), 40 μl of membrane suspension (1-5 μg protein/assay tube) in a final volume of 0.1 ml of 50 mM Tris- HCl, pH 7.6. Incubations are carried out at 37° C. for 60 minutes and terminated by addition of 2 ml ice-cold assay buffer end filtered through GF/B glass fiber filters (presoaked in 0.1% polyethyleneimine). Filters are washed twice with 5 ml of cold buffer and transferred to polystyrene tubes for radioactivity determination. Protein concentration was measured using the Bradford dye binding method.\nInhibition of [^125 I]LSD binding by a test compound is indicative of affinity for the 5HT2 receptor site. The molar concentration of a Compound which causes 50% inhibition of the binding of ligand is the IC50. The IC50 value is converted to the Ki value by the method of Cheng and Prusoff.[Cheng, Y. -C and Prusoff, Biochem. Pharmacol. 22:3099-3108, 1973]."}, "migraine headaches": {"test_system": "migraine headaches", "details": "in vivo; cited from earlier work"}, "5-HT1C receptor": {"test_system": "5-HT1C receptor", "details": "albeit nonselective; cited from earlier work"}, "migraine": {"test_system": "migraine", "details": "in vivo; cited from earlier work"}},
  "data": [
    {"smiles": "COc1ccc(CC(Oc2ccccc2OCc2ccccc2)C2=NCCN2)cc1", "note": "(stereo not drawn) [100,499, 2-[1-(2-benzyloxyphenoxy)-2-(4-methoxyphenyl)]ethylimidazoline]", "values": [
      {"measurement": "IC50", "setting": "[1]", "result": 3.5, "unit": "nM"}
    ]},
    {"smiles": "c1ccc(COc2ccccc2OC(Cc2ccccc2)C2=NCCN2)cc1", "note": "(stereo not drawn) [101,600, 2-[1-(2-benzyloxyphenoxy)-2-phenyl]ethylimidazoline]", "values": [
      {"measurement": "IC50", "setting": "[1]", "result": 2.5, "unit": "nM"}
    ]},
    {"smiles": "c1ccc(CCOc2ccccc2OC(Cc2ccccc2)C2=NCCN2)cc1", "note": "(stereo not drawn) [101,623, 2-(1-[2-(2-phenylethoxy)phenoxy]-2-phenyl)ethylimidazoline]", "values": [
      {"measurement": "IC50", "setting": "[1]", "result": 14, "unit": "nM"}
    ]},
    {"smiles": "c1ccc(CCCC(Oc2ccccc2OCc2ccccc2)C2=NCCN2)cc1", "note": "(stereo not drawn) [102,588, 2-[1-(2-benzyloxyphenoxy)-4-phenyl]butylimidazoline]", "values": [
      {"measurement": "IC50", "setting": "[1]", "result": 167, "unit": "nM"}
    ]},
    {"smiles": "Clc1cccc(N2CCNCC2)c1", "note": "[m-chlorophenylpiperazine]", "values": [
      {"measurement": "inducing migraine headaches", "setting": "migraine headaches", "result": "capable of inducing migraine headaches"}
    ]},
    {"smiles": "CC[C@@H](CO)NC(=O)[C@@H]1C=C2c3cccc4c3c(cn4C)C[C@H]2N(C)C1", "note": "[methysergide]", "values": [
      {"measurement": "5-HT1C receptor antagonist activities", "setting": "5-HT1C receptor", "result": "potent 5-HT1C receptor antagonist activities (albeit nonselective)"},
      {"measurement": "migraine prophylactic effectiveness", "setting": "migraine", "result": "well established as effective migraine prophylactic agents"}
    ]},
    {"smiles": "CN1CCC(=C2c3ccccc3CCc3sccc32)CC1", "note": "[pizotifen]", "values": [
      {"measurement": "5-HT1C receptor antagonist activities", "setting": "5-HT1C receptor", "result": "potent 5-HT1C receptor antagonist activities (albeit nonselective)"},
      {"measurement": "migraine prophylactic effectiveness", "setting": "migraine", "result": "well established as effective migraine prophylactic agents"}
    ]}
  ]
}
